In article PMC12210912, “Pharmacologic properties and inhibitory activity of 6-azasteroids against Mycobacterium leprae in vivo and in vitro” (Microbiology Spectrum, 2025):

How the values were obtained:
[1] = stability in human liver microsomes; type: in vitro ADME; details: both sexes, human liver microsomes, pH 7.4, 1 μM, HLM 0.5 mg/mL, 37°C, 1 h, mean of duplicates, read-out: HLM stability t1/2
Protocol: Experiments were performed by Pharmaron, Inc., China. […] Negative control samples were prepared by replacing the NADPH solution with ultrapure H2O. The negative controls were used to exclude the confounding variable of test compound instability. Experiments involving NADPH were carried out in duplicate. Negative controls were prepared in singlet. Aliquots (90 µL) were taken at 0, 15, 30, 45, and 60 min of incubation. The microsomal reaction in each aliquot was stopped by the addition of four volumes of cold acetonitrile containing internal standards (100 nM alprazolam, 200 nM imipramine, 200 nM labetalol, and 2 µM ketoprofen). The samples were centrifuged at 3,220 × g for 40 min, and an aliquot (90 µL) of the supernatant was mixed with 90 µL of ultrapure H2O. The resulting mixture was used for liquid chromatography–tandem mass spectrometry (LC-MS/MS) analysis (Shimadzu and SCIEX Triple Quad 4500). Peak areas were determined from extracted ion chromatograms. A slope, k, was determined by linear regression analysis of a plot of the natural logarithm of the remaining percentage of the parent drug versus incubation time. The in vitro t1/2 (min) was determined from the slope: in vitro t1/2=−(0.693/k) In vitro t1/2 (min, mean of duplicate determinations) was converted to in vitro intrinsic clearance (in vitro Clint, μL/(min·µg protein)) by means of the following equation : in vitro Clint=(0.693/t1/2)×(volume of incubation (μL)/amount of protein (μg))

[2] = tested on: HepG2 cells; details: cited from earlier work
[3] = tested on: M. leprae; test: Shepard's mouse footpad model: bacilli count and molecular viability; type: in vivo, Mycobacterium leprae; details: Balb/c mice, 1 month, vehicle median 8.110 × 10^4
Protocol: Animal experimentation was conducted under approval by the ILSL ethical committee ([…] 02/19). Balb/c female mice with 8-week-old were inoculated with 5 × 10^3 live M. leprae bacilli, strain Thai-53, in both hind footpads, as previously described for the Shepard's model ([25]). Eight groups were tested in the experiment: (i) M. leprae control group (n = 5) inoculated with M. leprae and no additional treatment; (ii) vehicle control group (n = 4) inoculated with M. leprae and treatment with vehicle of the drugs; (iii) regular rifampicin treatment, 10 mg/Kg dose; […] (v) compound 2 treatment (n = 4), 50 mg/kg dose; […] One month after inoculation, mice from the control group were euthanized and the hind footpad was collected to assess the establishment of the infection by bacillary enumeration. At that time point, vehicle or drug treatment was started for the remaining groups. All compounds were administrated by gavage, rifampicin was administered weekly, and the compounds were administered daily (excluding weekends) for 1 month (20 doses). Mice were euthanized 6 h after administration of the last dose, and blood was collected in heparin-coated tubes by cardiac puncture for blood enzyme evaluation and compound 5 measurement by LC/MS in the plasma. The infected hind footpads from each group of mice were excised, homogenized and bacilli enumerated in a 100 μL aliquot as previously described ([26]). The remaining homogenate was centrifuged at 12,000 × g for 15 min, the supernatant was discarded, and the pellet was suspended in 750 μL of RNA later solution (Thermo Fisher Scientific). The homogenized tissue pellet was incubated at 4°C for 16 h and stored at -80°C until determination of M. leprae viability was performed by RT-qPCR ([27], [28]). […] RNA and DNA extractions were performed as previously described ([10], [27]). RNA samples were treated with the Turbo DNA-free kit (Thermo Fisher Scientific), and 1,000 ng of DNAse-treated RNA was then used to synthesize the cDNA using the GoScript kit (Promega, USA).

half-life at 1 µM [1] [min]	SMILES	IC50 [2] [µM]	bacillary load in footpad, median ([3]; rifampicin 10 mg/kg weekly by gavage)	bacillary load in footpad, median ([3]; sub-inhibitory rifampicin 1 mg/kg weekly by gavage)
45	C[C@]12CCC3C(CN(CCCF)C4CC(=O)CC[C@]34C)C1CCC2C(=O)Nc1cc(C(F)(F)F)ccc1C(F)(F)F (some centres unmarked) [Compound 3]	> 100	–	–
63	C[C@]12CCC3C(CN(CCC(F)(F)F)C4CC(=O)CC[C@]34C)C1CCC2C(=O)Nc1cc(C(F)(F)F)ccc1C(F)(F)F (some centres unmarked) [Compound 4]	> 100	–	–
337	CCCN1CC2C3CCC(C(=O)NC(c4ccc(F)cc4)c4ccc(F)cc4)[C@@]3(C)CCC2[C@@]2(C)CCC(=O)C=C12 (some centres unmarked) [Compound 6]	> 100	–	–
–	CO[C@H]1/C=C/O[C@@]2(C)Oc3c(C)c(O)c4c(O)c(c(/C=N/N5CCN(C)CC5)c(O)c4c3C2=O)NC(=O)/C(C)=C\C=C\[C@H](C)[C@H](O)[C@@H](C)[C@@H](O)[C@@H](C)[C@H](OC(C)=O)[C@@H]1C [rifampicin, reference compound]	–	0.438 × 10^4	7.890 × 10^4
